Data reported in patent publication US7906522B2, “2-aminoquinazoline derivatives” (Kyowa Hakko Kirin Co., Ltd, priority 2005, dated 2011).

biological target: T1, Activated human p38α (Homo sapiens, UniProt Q16539); experiment: p38MAP kinase inhibition test; format: biochemical; details: at a concentration of 1 μmol/L; substrate myelin basic protein, ATP 20 μmol/L, [γ-32P]ATP; read-out: enzyme inhibitory activity
T1 construct: purchased Upstate Biotechnology Inc. 14-251
In short: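 Radiometric kinase assay with myelin basic protein (20 μg/assay) as substrate, 20 μmol/L ATP plus [γ-32P]ATP, MOPS pH 7.2 with MgCl2 18.75 mmol/L. Reaction run 15 min at 30° C., stopped with phosphoric acid; 32P-MBP captured on phosphocellulose and counted by scintillation.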

T1 sequence (Q16539 whole entry): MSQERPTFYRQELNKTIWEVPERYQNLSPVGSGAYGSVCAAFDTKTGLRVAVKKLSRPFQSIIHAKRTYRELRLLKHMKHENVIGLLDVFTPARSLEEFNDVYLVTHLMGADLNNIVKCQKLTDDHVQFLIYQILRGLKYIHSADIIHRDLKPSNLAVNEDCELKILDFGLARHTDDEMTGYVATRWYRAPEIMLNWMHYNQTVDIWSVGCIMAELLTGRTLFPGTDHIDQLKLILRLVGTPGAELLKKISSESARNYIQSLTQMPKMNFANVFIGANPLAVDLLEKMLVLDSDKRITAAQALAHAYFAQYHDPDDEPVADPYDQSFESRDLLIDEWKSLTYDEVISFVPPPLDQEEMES

Inhibition at 1 µM, ≥ 50%:
COc1cc2nc(NC(C)C)ncc2cc1-c1ccccc1O [Compound 186, 6-(2-Hydroxyphenyl)-2-isopropylamino-7-methoxyquinazoline]
CC(C)Nc1ncc2cc(-c3cc(NC(=O)c4ccc[nH]4)ccc3O)ccc2n1 [Compound 267, 6-{2-Hydroxy-5-[(1H-pyrrol-2-yl)carbonylamino]phenyl}-2-(isopropylamino)quinazoline]
CC(=O)Nc1cccc(-c2cc3cnc(NC(C)C)nc3cc2C)c1 [Compound 277, 6-[3-(Acetylamino)phenyl]-2-isopropylamino-7-methylquinazoline]
CC(C)Nc1ncc2cc(-c3cccc(N)c3)c(O)cc2n1 [Compound 285, 6-(3-Aminophenyl)-7-hydroxy-2-(isopropylamino)quinazoline]
Cc1ccc(NC(=O)C2CCC2)cc1-c1ccc2nc(NC(C)C)ncc2c1 [Compound 265, 6-(5-Cyclobutylcarbonylamino-2-methylphenyl)-2-(isopropylamino)quinazoline]
COc1cc2nc(NC(C)C)ncc2cc1-c1ccccc1CO [Compound 182, 6-[2-(Hydroxymethyl)phenyl]-2-isopropylamino-7-methoxyquinazoline]
COc1cc2nc(NC(C)C)ncc2cc1-c1cc(NC(C)=O)ccc1C#N [Compound 227, 6-(5-Acetylamino-2-cyanophenyl)-2-isopropylamino-7-methoxyquinazoline]
COc1cc2nc(NC(C)C)ncc2cc1-c1cccc(NC(=O)c2cccnc2)c1 [Compound 221, 2-Isopropylamino-7-methoxy-6-{3-[(3-pyridyl)carbonylamino]phenyl}quinazoline]
CCCNC(=O)c1c(OC)c(-c2ccccc2Cl)cc2cnc(NC(C)C)nc12 [Compound 69, 6-(2-Chlorophenyl)-2-isopropylamino-7-methoxy-8-(N-propylaminocarbonyl)quinazoline]
CC(C)Nc1ncc2cc(C(=O)c3ccccc3)c(O)cc2n1 [Compound 110, 6-Benzoyl-7-hydroxy-2-(isopropylamino)quinazoline]
CC(C)Nc1ncc2cc(-c3ccccc3Cl)c(O)cc2n1 [Compound 19, 6-(2-Chlorophenyl)-7-hydroxy-2-isopropylaminoquinazoline]
COc1cc2nc(NC(C)C)ncc2cc1-c1cccc(NC(C)=O)c1 [Compound 52, 6-[(3-Acetylamino)phenyl]-2-isopropylamino-7-methoxyquinazoline]
CC(C)Nc1ncc2cc(-c3cccc(C(=O)NC4CC4)c3)ccc2n1 [Compound 270, 6-[3-(Cyclopropylcarbamoyl)phenyl]-2-(isopropylamino)quinazoline]
COc1c(-c2ccccc2Cl)cc2cnc(NC(C)C)nc2c1Br [Compound 60, 8-Bromo-6-(2-chlorophenyl)-2-isopropylamino-7-methoxyquinazoline]
CC(=O)c1c(OCC(=O)O)c(-c2ccccc2Cl)cc2cnc(NC(C)C)nc12 [Compound 80, 8-Acetyl-7-(carboxymethyloxy)-6-(2-chlorophenyl)-2-(isopropylamino)quinazoline]
CC(C)Nc1ncc2cc(C(=O)c3cccc(Cl)c3)c(O)cc2n1 [Compound 120, 6-(3-Chlorobenzoyl)-7-hydroxy-2-(isopropylamino)quinazoline]
Cc1ccc(NC(=O)C2CC2)cc1-c1cc2cnc(NC(C)C)nc2cc1O [Compound 295, 6-(5-Cyclopropylcarbonylamino-2-methylphenyl)-7-hydroxy-2-(isopropylamino)quinazoline]
CC(C)Nc1ncc2cc(-c3ccccc3Cl)c3oc(C(C)(C)O)cc3c2n1 [Compound 112, 6-(2-Chlorophenyl)-8-(1-hydroxy-1-methylethyl)-2-(isopropylamino)furo[2,3-h]quinazoline]
COc1cc2nc(NC(C)C)ncc2cc1-c1cccc(NC(=O)c2ccnc(N3CCOCC3)c2)c1 [Compound 53, 2-Isopropylamino-7-methoxy-6-{3-[(2-morpholinopyridin-4-yl)carbonylamino]phenyl}quinazoline]
CC(C)Nc1ncc2cc(-c3ccccc3Cl)c(O)c(-c3ccccn3)c2n1 [Compound 87, 6-(2-Chlorophenyl)-2-isopropylamino-7-hydroxy-8-(2-pyridyl)quinazoline]
Cc1ccc(NC(=O)c2ccc[nH]2)cc1-c1ccc2nc(NC(C)C)ncc2c1 [Compound 253, 2-Isopropylamino-6-{2-methyl-5-[(1H-pyrrol-2-yl)carbonylamino]phenyl}quinazoline]
COc1cc2nc(NC(C)C)ncc2cc1C(=O)c1cccc(Cl)c1 [Compound 117, 6-(3-Chlorobenzoyl)-2-isopropylamino-7-methoxyquinazoline]
COc1cc2nc(NC(C)C)ncc2cc1-c1ccccc1C(F)(F)F [Compound 192, 2-Isopropylamino-7-methoxy-6-(2-trifluoromethylphenyl)quinazoline]
COc1cc2nc(NC(C)C)ncc2cc1-c1cccc(NC(=O)c2cccc(F)c2)c1 [Compound 219, 6-{3-[(3-Fluorophenyl)carbonylamino]phenyl}-2-isopropylamino-7-methoxyquinazoline]
COc1cc2nc(Nc3c(F)cccc3F)ncc2cc1-c1ccccc1Cl [Compound 16, 6-(2-Chlorophenyl)-2-(2,6-difluoroanilino)-7-methoxyquinazoline]
COc1cc2nc(N[C@H]3CC[C@H](NS(C)(=O)=O)CC3)ncc2cc1-c1ccccc1Cl [Compound 146, 6-(2-Chlorophenyl)-7-methoxy-2-[trans-4-(methylsulfonylamino)cyclohexylamino]quinazoline]
CCOC(=O)N1CCC(Nc2ncc3cc(-c4ccccc4Cl)c(OC)cc3n2)CC1 [Compound 149, 6-(2-Chlorophenyl)-2-[1-(ethoxycarbonyl)piperidin-4-ylamino]-7-methoxyquinazoline]
CC(C)Nc1ncc2cc(-c3ccccc3Cl)c(O)c(-c3ccc(C(=O)O)cc3)c2n1 [Compound 92, 8-(4-Carboxyphenyl)-6-(2-chlorophenyl)-7-hydroxy-2-(isopropylamino)quinazoline]
COc1cc2nc(NC3CCN(S(=O)(=O)C(F)(F)F)CC3)ncc2cc1-c1ccccc1Cl [Compound 13, 6-(2-Chlorophenyl)-7-methoxy-2-[1-(trifluoromethylsulfonyl)piperidin-4-ylamino]quinazoline]
COC(=O)c1c(OC)c(-c2ccccc2Cl)cc2cnc(NC(C)C)nc12 [Compound 61, 6-(2-Chlorophenyl)-2-isopropylamino-7-methoxy-8-(methoxycarbonyl)quinazoline]
CC[C@H](C)Nc1ncc2cc(C(=O)c3cccc(C)c3)c(O)cc2n1 [Compound 135, (S)-2-(sec-Butylamino)-7-hydroxy-6-(3-methylbenzoyl)quinazoline]
COc1cc2nc(NC(C)C)ncc2cc1-c1ccccc1C=NO [Compound 58]
COc1cc2nc(N[C@@H](C)c3ccccc3)ncc2cc1-c1ccccc1Cl [Compound 9, (S)-6-(2-Chlorophenyl)-7-methoxy-2-[(1-phenylethyl)amino]quinazoline]
CC(C)Nc1ncc2cc(-c3ccccc3Cl)c(-c3ccc(C(=O)O)cc3)cc2n1 [Compound 41, 7-(4-Carboxyphenyl)-6-(2-chlorophenyl)-2-isopropylaminoquinazoline]
COc1ccccc1-c1cc2cnc(NC(C)C)nc2cc1OC [Compound 193, 2-Isopropylamino-7-methoxy-6-(2-methoxyphenyl)quinazoline]
COCOc1c(-c2ccccc2Cl)cc2cnc(NC(C)C)nc2c1-c1cccc(C(=O)O)c1 [Compound 93, 8-(3-Carboxyphenyl)-6-(2-chlorophenyl)-2-isopropylamino-7-(methoxymethyloxy)quinazoline]
Cc1ccc(NC(=O)c2ccnc(N3CCOCC3)c2)cc1-c1ccc2nc(NC(C)C)ncc2c1 [Compound 256, 2-Isopropylamino-6-{2-methyl-5-[(2-morpholinopyridin-4-yl)carbonylamino]phenyl}quinazoline]
COc1cc2nc(NC(C)C)ncc2cc1-c1cc(N)ccc1CO [Compound 224, 6-[5-Amino-2-(hydroxymethyl)phenyl]-2-isopropylamino-7-methoxyquinazoline]
CNC(=O)Nc1cccc(-c2cc3cnc(NC(C)C)nc3cc2OC)c1 [Compound 212, 2-Isopropylamino-7-methoxy-6-[3-(3-methylureido)phenyl]quinazoline]
CC(C)Nc1ncc2cc(C(=O)c3cccc(F)c3)c(O)cc2n1 [Compound 132, 6-(3-Fluorobenzoyl)-7-hydroxy-2-(isopropylamino)quinazoline]
CC(C)Nc1ncc2cc(-c3cccc(NC(=O)C4(C)CC4)c3)c(O)cc2n1 [Compound 299, 7-Hydroxy-2-isopropylamino-6-{3-[(1-methylcyclopropyl)carbonylamino]phenyl}quinazoline]
